From BindingDB's records for patent US9796704 (SYMPHONY EVOLUTION, INC., 2017)

Tests used:
Assay in all cases: AlphaScreen Assay
[1] = molecular target: Receptor tyrosine-protein kinase erbB-2 (Homo sapiens, UniProt P04626)
[2] = molecular target: Vascular endothelial growth factor receptor 2 (Homo sapiens, UniProt P35968)
Ephrin type-A receptor 2 = Ephrin type-A receptor 2 (Homo sapiens, UniProt P29317)
Ephrin type-A receptor 2, sequence (P29317 whole entry): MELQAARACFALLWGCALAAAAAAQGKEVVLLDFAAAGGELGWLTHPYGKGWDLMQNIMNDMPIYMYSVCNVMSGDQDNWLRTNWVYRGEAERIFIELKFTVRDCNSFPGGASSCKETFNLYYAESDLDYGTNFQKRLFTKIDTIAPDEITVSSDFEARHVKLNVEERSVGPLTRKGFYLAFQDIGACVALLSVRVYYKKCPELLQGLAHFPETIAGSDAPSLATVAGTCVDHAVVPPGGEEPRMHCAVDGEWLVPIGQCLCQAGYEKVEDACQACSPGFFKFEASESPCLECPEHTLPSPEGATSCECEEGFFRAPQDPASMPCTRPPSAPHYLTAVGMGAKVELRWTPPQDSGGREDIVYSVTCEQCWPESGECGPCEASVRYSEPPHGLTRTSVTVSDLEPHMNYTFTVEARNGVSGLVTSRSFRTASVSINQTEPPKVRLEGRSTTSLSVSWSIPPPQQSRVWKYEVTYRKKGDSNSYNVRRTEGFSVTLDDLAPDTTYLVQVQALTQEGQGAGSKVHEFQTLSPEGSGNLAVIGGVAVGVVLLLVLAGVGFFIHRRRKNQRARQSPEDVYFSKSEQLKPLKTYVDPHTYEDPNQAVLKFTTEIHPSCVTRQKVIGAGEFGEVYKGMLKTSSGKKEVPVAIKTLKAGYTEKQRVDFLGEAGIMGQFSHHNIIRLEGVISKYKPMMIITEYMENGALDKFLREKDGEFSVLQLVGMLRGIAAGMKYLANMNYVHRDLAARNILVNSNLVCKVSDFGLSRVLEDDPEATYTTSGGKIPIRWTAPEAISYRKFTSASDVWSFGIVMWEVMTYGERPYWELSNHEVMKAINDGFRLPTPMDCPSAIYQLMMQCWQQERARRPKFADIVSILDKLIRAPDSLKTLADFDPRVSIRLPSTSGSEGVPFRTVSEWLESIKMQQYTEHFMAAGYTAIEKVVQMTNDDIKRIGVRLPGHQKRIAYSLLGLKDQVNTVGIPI

Vascular endothelial growth factor receptor 2, sequence (P35968 whole entry): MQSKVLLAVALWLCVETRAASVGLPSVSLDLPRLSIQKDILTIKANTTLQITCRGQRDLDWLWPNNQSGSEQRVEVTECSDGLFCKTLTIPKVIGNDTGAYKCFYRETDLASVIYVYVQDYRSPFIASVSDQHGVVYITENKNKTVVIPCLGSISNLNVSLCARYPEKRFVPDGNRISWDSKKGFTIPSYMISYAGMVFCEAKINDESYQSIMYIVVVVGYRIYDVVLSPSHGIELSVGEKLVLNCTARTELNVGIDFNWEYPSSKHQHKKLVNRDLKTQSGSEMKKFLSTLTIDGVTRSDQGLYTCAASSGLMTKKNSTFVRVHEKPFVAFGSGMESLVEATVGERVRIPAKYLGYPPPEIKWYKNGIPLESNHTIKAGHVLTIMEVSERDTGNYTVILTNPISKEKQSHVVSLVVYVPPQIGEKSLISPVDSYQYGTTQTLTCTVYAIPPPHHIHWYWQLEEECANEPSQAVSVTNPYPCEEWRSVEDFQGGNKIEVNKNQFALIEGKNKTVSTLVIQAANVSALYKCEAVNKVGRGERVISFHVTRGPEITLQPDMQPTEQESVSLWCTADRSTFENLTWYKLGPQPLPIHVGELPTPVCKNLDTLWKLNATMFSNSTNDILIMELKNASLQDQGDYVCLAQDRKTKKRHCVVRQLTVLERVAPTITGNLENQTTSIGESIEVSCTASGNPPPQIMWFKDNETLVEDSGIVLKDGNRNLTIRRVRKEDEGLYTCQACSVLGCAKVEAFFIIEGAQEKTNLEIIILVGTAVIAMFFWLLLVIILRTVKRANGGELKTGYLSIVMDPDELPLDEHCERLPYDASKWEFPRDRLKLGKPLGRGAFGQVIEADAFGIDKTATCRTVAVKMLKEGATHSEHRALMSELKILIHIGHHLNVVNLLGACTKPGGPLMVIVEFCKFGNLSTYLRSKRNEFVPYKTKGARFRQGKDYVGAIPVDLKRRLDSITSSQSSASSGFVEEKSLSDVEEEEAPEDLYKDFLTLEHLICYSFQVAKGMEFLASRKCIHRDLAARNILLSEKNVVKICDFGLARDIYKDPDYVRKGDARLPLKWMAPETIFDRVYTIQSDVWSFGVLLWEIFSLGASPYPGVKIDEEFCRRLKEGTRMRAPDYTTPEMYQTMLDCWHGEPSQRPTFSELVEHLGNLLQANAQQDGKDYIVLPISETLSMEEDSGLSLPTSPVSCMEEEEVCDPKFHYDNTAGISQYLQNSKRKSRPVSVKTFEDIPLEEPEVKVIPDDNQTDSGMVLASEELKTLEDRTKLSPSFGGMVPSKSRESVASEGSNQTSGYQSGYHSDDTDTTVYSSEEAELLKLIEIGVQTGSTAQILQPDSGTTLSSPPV
Receptor tyrosine-protein kinase erbB-2, sequence (P04626 whole entry): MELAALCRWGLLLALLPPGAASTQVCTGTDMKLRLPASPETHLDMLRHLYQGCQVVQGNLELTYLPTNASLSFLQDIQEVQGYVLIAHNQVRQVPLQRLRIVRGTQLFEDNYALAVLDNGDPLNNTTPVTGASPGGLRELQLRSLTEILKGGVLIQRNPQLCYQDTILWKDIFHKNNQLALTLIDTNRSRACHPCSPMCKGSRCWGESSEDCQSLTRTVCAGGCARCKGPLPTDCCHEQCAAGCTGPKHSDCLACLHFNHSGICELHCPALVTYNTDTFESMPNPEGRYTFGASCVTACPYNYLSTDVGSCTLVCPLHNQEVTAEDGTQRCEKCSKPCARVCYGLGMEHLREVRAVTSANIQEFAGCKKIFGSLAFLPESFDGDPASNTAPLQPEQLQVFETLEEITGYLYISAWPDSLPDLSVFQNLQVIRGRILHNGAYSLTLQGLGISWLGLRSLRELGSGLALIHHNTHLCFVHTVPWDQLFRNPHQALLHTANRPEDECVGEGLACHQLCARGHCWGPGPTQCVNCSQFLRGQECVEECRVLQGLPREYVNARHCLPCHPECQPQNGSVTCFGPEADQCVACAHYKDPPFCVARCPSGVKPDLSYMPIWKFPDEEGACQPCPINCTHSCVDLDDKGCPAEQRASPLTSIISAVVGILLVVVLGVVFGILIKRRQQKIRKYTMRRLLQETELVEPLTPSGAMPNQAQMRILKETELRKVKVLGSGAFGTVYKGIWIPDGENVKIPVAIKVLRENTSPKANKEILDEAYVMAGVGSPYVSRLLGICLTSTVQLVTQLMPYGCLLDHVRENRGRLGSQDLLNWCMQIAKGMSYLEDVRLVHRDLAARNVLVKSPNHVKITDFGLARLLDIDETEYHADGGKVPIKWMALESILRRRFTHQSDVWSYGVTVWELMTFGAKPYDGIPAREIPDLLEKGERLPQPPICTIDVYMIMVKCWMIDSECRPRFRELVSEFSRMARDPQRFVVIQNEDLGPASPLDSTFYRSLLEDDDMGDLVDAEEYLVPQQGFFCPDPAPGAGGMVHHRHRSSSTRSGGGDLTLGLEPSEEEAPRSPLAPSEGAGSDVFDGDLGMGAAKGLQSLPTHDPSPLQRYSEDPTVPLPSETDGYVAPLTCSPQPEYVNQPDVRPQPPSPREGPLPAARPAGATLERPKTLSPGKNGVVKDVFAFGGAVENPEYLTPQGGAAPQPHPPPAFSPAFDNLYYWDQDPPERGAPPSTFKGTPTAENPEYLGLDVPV

COc1cc2c(Nc3ccc(Cl)c(Cl)c3)ncnc2cc1OCC1CN(CCCCCC#N)CCO1 (stereo not given) [US9796704, Entry 277]
IC50 [1]: in the range around 525 nM | IC50 [2]: in the range around 10500 nM

COc1cc2c(Nc3ccc(Cl)c(Cl)c3F)ncnc2cc1OCC1CO[C@@H]2[C@@H](OC)CO[C@H]12 (stereo not given in full) [US9796704, Entry 43]
IC50 [1]: in the range around 10500 nM

COc1cc2c(Nc3ccc(Cl)c(Cl)c3)ncnc2cc1OC[C@@H]1CO[C@H]2[C@@H]1OC[C@@H]2OC [US9796704, Entry 42]
IC50 [1]: in the range around 10500 nM

COc1cc2c(Nc3ccc(Cl)c(Cl)c3)ncnc2cc1OCc1noc(-c2c(C)noc2C)n1 [US9796704, Entry 224]
IC50 [1]: in the range around 525 nM | IC50 [2]: in the range around 525 nM

COc1cc2c(Nc3ccc(Cl)c(Cl)c3)ncnc2cc1OCC1CN2CCOCC2CO1 (stereo not given) [US9796704, Entry 25]
IC50 [1]: in the range around 10500 nM

COCCN1CCCOC(COc2cc3ncnc(Nc4ccc(Cl)c(Cl)c4)c3cc2OC)C1 (stereo not given) [US9796704, Entry 260]
IC50 [1]: in the range around 525 nM | IC50 [2]: in the range around 10500 nM

COc1cc2c(Nc3ccc(Cl)c(Cl)c3)ncnc2cc1OCc1noc(-c2ccccc2OC)n1 [US9796704, Entry 227]
IC50 [1]: in the range around 525 nM | IC50 [2]: in the range around 525 nM

COc1cc2c(Nc3ccc(Cl)c(Cl)c3)ncnc2cc1OCc1csc(-c2ccc(C(F)(F)F)cc2)n1 [US9796704, Entry 222]
IC50 [1]: in the range around 525 nM | IC50 [2]: in the range around 525 nM

COc1cc2c(Nc3ccc(Cl)c(Cl)c3)ncnc2cc1OCc1cc(Br)cc(Br)c1 [US9796704, Entry 232]
IC50 [1]: in the range around 525 nM

COc1cc2c(Nc3ccc(Cl)c(Cl)c3)ncnc2cc1OCC1CN(C(C)C)CCO1 (stereo not given) [US9796704, Entry 270]
IC50 [1]: in the range around 525 nM | IC50 [2]: in the range around 525 nM

COc1cc2c(Nc3ccc(Cl)c(Cl)c3)ncnc2cc1OCc1csc(-c2ccc(Cl)cc2)n1 [US9796704, Entry 223]
IC50 [1]: in the range around 525 nM | IC50 [2]: in the range around 525 nM

COc1cc2c(Nc3ccc(Cl)c(Cl)c3)ncnc2cc1OCC1CN(C(C)C)CCCO1 (stereo not given) [US9796704, Entry 261]
IC50 [1]: in the range around 525 nM | IC50 [2]: in the range around 10500 nM

CCN1CCN(c2noc(COc3cc4ncnc(Nc5ccc(Cl)c(Cl)c5)c4cc3OC)n2)CC1 [US9796704, Entry 220]
IC50 [1]: in the range around 525 nM | IC50 [2]: in the range around 525 nM

COc1cc2c(Nc3ccc(Cl)c(Cl)c3)ncnc2cc1OCc1nccn1Cc1ccccc1 [US9796704, Entry 229]
IC50 [1]: in the range around 525 nM | IC50 [2]: in the range around 525 nM

COc1cc2c(Nc3ccc(Cl)c(Cl)c3)ncnc2cc1OCC1CN(C)CCN1C (stereo not given) [US9796704, Entry 268]
IC50 [1]: in the range around 525 nM | IC50 [2]: in the range around 10500 nM

COc1cc2c(Nc3ccc(Cl)c(Cl)c3)ncnc2cc1OCc1csc(C2CCCCN2C)n1 (stereo not given) [US9796704, Entry 250]
IC50 [1]: in the range around 10500 nM | IC50 [2]: in the range around 525 nM

COc1cc2c(Nc3ccc(Cl)c(Cl)c3)ncnc2cc1OCc1noc(C2CCCN2)n1 (stereo not given) [US9796704, Entry 263]
IC50 [1]: in the range around 10500 nM | IC50 [2]: in the range around 10500 nM

COc1cc2c(Nc3ccc(Cl)c(Cl)c3)ncnc2cc1OCc1nnc(-c2ccc(C)cc2)o1 [US9796704, Entry 228]
IC50 [1]: in the range around 525 nM | IC50 [2]: in the range around 525 nM

COc1cc2c(Nc3cccc(Br)c3)ncnc2cc1O[C@@H]1CO[C@@H]2[C@H]1OC[C@H]2F [US9796704, Entry 129]
IC50 (Ephrin type-A receptor 2): in the range around 525 nM | IC50 [2]: in the range around 525 nM

CCN1CCN(c2nc(COc3cc4ncnc(Nc5ccc(Cl)c(Cl)c5)c4cc3OC)cs2)CC1 [US9796704, Entry 267]
IC50 [1]: in the range around 525 nM | IC50 [2]: in the range around 10500 nM

COCCN1CCOC(COc2cc3ncnc(Nc4ccc(Cl)c(Cl)c4)c3cc2OC)C1 (stereo not given) [US9796704, Entry 272]
IC50 [1]: in the range around 525 nM | IC50 [2]: in the range around 10500 nM

COc1cc2c(Nc3ccc(Cl)c(Cl)c3)ncnc2cc1OCC1CN(CCCc2ccccc2)CCO1 (stereo not given) [US9796704, Entry 271]
IC50 [1]: in the range around 525 nM | IC50 [2]: in the range around 10500 nM

COc1cc2c(Nc3ccc(Cl)c(Cl)c3)ncnc2cc1OCC1CN(Cc2ccccc2)CCO1 (stereo not given) [US9796704, Entry 147]
IC50 (Ephrin type-A receptor 2): in the range around 10500 nM | IC50 [2]: in the range around 525 nM

CCOC(=O)C(C)N1CCOC(COc2cc3ncnc(Nc4ccc(Cl)c(Cl)c4)c3cc2OC)C1 (stereo not given) [US9796704, Entry 273]
IC50 [1]: in the range around 10500 nM | IC50 [2]: in the range around 10500 nM

COc1cc2c(Nc3ccc(Cl)c(Cl)c3)ncnc2cc1OCc1nc(-c2ccncc2)cs1 [US9796704, Entry 203]
IC50 [1]: in the range around 525 nM

COc1cc2c(Nc3ccc(Cl)c(Cl)c3)ncnc2cc1OCc1noc(-c2ccccc2)n1 [US9796704, Entry 235]
IC50 [1]: in the range around 525 nM

COc1cc2c(Nc3ccc(Cl)c(Cl)c3)ncnc2cc1OCC1CN(CCOCCO)CCO1 (stereo not given) [US9796704, Entry 275]
IC50 [1]: in the range around 10500 nM | IC50 [2]: in the range around 10500 nM

COc1cc2c(Nc3cccc(F)c3F)ncnc2cc1O[C@@H]1CO[C@@H]2[C@H]1OC[C@H]2F [US9796704, Entry 92]
IC50 (Ephrin type-A receptor 2): in the range around 525 nM | IC50 [2]: in the range around 525 nM

COc1cc2c(Nc3ccc(Cl)c(Cl)c3)ncnc2cc1OCc1csc(CO)n1 [US9796704, Entry 246]
IC50 [1]: in the range around 525 nM | IC50 [2]: in the range around 525 nM

COc1cc2c(Nc3ccc(Cl)c(Cl)c3)ncnc2cc1OCc1noc(C2CCN(C)CC2)n1 [US9796704, Entry 142]
IC50 (Ephrin type-A receptor 2): in the range around 525 nM | IC50 [2]: in the range around 525 nM

COc1cc2c(Nc3ccc(Cl)c(Cl)c3)ncnc2cc1OCc1csc2ccc(Cl)cc12 [US9796704, Entry 225]
IC50 [1]: in the range around 10500 nM | IC50 [2]: in the range around 10500 nM

COc1cc2c(Nc3ccc(Cl)c(Cl)c3)ncnc2cc1OCc1nc(CN(C)C)no1 [US9796704, Entry 139]
IC50 (Ephrin type-A receptor 2): in the range around 525 nM | IC50 [2]: in the range around 525 nM

COc1cc2c(Nc3ccc(Cl)c(Cl)c3)ncnc2cc1OCc1noc(C2CCNCC2)n1 [US9796704, Entry 141]
IC50 (Ephrin type-A receptor 2): in the range around 525 nM | IC50 [2]: in the range around 525 nM

CCN1CCCC(c2nc(COc3cc4ncnc(Nc5ccc(Cl)c(Cl)c5)c4cc3OC)no2)C1 (stereo not given) [US9796704, Entry 239]
IC50 [1]: in the range around 10500 nM

COc1cc2c(Nc3ccc(Cl)c(Cl)c3)ncnc2cc1OCc1cc(C)on1 [US9796704, Entry 160]
IC50 (Ephrin type-A receptor 2): in the range around 525 nM | IC50 [2]: in the range around 525 nM

COc1cc2c(Nc3ccc(C(F)(F)F)cc3Br)ncnc2cc1O[C@@H]1CO[C@@H]2[C@H]1OC[C@H]2F [US9796704, Entry 125]
IC50 [1]: in the range around 525 nM

CCN1CCC(c2nc(COc3cc4ncnc(Nc5ccc(Cl)c(Cl)c5)c4cc3OC)cs2)CC1 [US9796704, Entry 242]
IC50 [1]: in the range around 525 nM
